The source made the active and inactive calls. The calls are words filed in the database; no cut-off is given here.
Key:
[1] = target: Protein arginine N-methyltransferase 8 (Homo sapiens, UniProt Q9NR22); assay: Inhibition of human PRMT8 using Histone H4 as substrate and SAM as cofactor at 10 uM by radiometric HotSpot assay relative to control
[2] = target: Protein arginine N-methyltransferase 3 (Homo sapiens, UniProt O60678); assay: Inhibition of human PRMT3 using H4-21peptide as substrate at 10 uM incubated for 10 mins by fluorescence based analysis relative to control
[3] = target: Protein arginine N-methyltransferase 1 (Homo sapiens, UniProt Q99873); assay: Inhibition of human PRMT1 using H4-21peptide as substrate at 10 uM incubated for 10 mins by fluorescence based analysis relative to control
[4] = target: T1, Histone-arginine methyltransferase CARM1 (Homo sapiens) (UniProt Q86X55); assay: Inhibition of human PRMT4 using histone H3 as substrate and SAM as cofactor at 10 uM by radiometric HotSpot assay relative to control
T1 sequence (whole entry): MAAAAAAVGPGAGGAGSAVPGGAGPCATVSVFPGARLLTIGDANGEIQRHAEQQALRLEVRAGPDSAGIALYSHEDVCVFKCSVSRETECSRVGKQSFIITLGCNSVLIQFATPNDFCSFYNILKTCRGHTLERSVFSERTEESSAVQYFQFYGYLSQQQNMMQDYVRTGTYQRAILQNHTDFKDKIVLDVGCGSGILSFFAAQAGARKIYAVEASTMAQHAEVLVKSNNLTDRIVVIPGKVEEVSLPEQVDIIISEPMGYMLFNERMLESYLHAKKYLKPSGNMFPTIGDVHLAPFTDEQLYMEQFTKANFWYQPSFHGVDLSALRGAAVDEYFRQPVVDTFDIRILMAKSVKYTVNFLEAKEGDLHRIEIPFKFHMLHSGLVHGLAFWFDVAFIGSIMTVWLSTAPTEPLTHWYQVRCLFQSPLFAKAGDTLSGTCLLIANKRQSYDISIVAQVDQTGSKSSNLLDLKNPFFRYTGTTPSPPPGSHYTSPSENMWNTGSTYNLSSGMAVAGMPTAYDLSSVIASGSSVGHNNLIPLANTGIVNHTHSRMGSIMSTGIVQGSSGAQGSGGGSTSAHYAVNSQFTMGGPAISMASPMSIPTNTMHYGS

[5] = target: Protein arginine N-methyltransferase 6 (Homo sapiens, UniProt Q96LA8); assay: Inhibition of human PRMT6 using GST-GAR as substrate and SAM as cofactor at 10 uM by radiometric HotSpot assay relative to control
Protein arginine N-methyltransferase 6, sequence (Q96LA8 whole entry, looked up): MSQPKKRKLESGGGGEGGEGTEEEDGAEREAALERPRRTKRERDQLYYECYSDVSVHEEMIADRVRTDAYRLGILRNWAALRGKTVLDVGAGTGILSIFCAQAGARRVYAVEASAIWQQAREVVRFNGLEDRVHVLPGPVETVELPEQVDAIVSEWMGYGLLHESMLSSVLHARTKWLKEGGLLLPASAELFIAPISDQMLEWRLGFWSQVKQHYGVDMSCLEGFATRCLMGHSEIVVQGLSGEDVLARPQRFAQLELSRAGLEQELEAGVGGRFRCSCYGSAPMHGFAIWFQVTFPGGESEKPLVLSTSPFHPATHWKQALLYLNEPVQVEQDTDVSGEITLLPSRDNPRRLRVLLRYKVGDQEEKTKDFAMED

Protein arginine N-methyltransferase 1, sequence (Q99873 whole entry, looked up): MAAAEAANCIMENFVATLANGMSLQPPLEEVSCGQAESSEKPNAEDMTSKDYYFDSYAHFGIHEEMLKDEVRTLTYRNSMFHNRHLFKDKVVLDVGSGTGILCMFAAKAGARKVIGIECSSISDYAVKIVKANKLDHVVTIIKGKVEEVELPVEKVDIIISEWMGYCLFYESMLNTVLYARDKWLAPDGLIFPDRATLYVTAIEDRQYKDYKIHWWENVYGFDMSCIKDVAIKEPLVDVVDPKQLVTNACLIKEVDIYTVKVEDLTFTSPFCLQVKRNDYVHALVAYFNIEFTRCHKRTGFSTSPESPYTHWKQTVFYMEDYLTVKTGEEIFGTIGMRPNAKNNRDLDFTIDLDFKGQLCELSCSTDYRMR
Protein arginine N-methyltransferase 3, sequence (O60678 2-531 limits assumed): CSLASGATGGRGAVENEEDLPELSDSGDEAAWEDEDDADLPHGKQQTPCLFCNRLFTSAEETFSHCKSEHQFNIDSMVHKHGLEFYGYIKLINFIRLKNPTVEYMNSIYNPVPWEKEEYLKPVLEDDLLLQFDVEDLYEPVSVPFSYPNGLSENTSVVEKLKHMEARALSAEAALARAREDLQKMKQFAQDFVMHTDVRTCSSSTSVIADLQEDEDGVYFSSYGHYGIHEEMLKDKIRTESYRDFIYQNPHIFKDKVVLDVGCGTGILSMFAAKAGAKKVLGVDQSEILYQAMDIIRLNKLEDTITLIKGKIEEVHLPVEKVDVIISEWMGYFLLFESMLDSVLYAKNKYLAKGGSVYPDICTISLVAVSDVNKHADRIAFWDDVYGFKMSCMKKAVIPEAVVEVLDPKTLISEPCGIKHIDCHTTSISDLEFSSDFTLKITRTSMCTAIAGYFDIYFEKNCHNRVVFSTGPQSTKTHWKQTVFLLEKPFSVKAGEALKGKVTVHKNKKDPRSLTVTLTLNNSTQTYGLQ
Protein arginine N-methyltransferase 8, sequence (Q9NR22 2-394 limits assumed): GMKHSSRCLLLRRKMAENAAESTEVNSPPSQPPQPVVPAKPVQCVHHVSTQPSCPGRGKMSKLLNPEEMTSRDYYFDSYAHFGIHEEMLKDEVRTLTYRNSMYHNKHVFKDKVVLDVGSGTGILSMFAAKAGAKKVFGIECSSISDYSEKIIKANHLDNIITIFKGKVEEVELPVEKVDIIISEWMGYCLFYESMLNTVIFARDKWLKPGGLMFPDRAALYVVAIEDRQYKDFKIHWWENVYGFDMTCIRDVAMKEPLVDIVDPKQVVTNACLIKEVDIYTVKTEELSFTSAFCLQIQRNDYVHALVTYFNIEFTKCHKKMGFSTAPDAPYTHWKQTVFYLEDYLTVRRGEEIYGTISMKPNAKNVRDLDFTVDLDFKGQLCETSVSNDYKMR

Structure (SMILES)	inhibition [1] [%]	inhibition [2] [%]	inhibition [3]	inhibition [4] [%]	inhibition [5] [%]
Nc1ncnc2c1ncn2[C@@H]1O[C@H](CSCCNC(=O)NCCc2ccccc2)[C@@H](O)[C@H]1O	< 30	3	< 50%	27	
Nc1ncnc2c1ncn2[C@@H]1O[C@H](CSCCNC(=O)Nc2cccc3ccccc23)[C@@H](O)[C@H]1O	< 30	3	< 50%	27	
N=C(NCCCSC[C@H]1O[C@@H](n2cnc3c(N)ncnc32)[C@H](O)[C@@H]1O)Nc1cccc(-c2cccc(F)c2)c1	> 95		> 50%	> 90	> 90
Nc1ncnc2c1ncn2[C@@H]1O[C@H](CSCCCNC(=O)NCCc2ccccc2)[C@@H](O)[C@H]1O	< 30	3	< 50%	27	
N=C(NCCCSC[C@H]1O[C@@H](n2cnc3c(N)ncnc32)[C@H](O)[C@@H]1O)Nc1cccc(-c2cncnc2)c1	> 95		> 50%	> 90	> 90
N=C(NCCCSC[C@H]1O[C@@H](n2cnc3c(N)ncnc32)[C@H](O)[C@@H]1O)Nc1cccc(-c2ccc(Cl)cc2)c1	> 95		> 50%	> 90	> 90
N=C(NCCCSC[C@H]1O[C@@H](n2cnc3c(N)ncnc32)[C@H](O)[C@@H]1O)Nc1cccc(-c2ccc(C(F)(F)F)cc2)c1	> 95		> 50%	> 90	> 90
N=C(NCCSC[C@H]1O[C@@H](n2cnc3c(N)ncnc32)[C@H](O)[C@@H]1O)Nc1cccc(-c2ccoc2)c1	> 95		> 50%	> 90	> 90
N=C(NCCCSC[C@H]1O[C@@H](n2cnc3c(N)ncnc32)[C@H](O)[C@@H]1O)Nc1cccc(Br)c1	> 95		> 50%	> 90	> 90
N=C(NCCCSC[C@H]1O[C@@H](n2cnc3c(N)ncnc32)[C@H](O)[C@@H]1O)Nc1cccc(-c2ccc(F)nc2)c1	> 95		> 50%	> 90	> 90
N=C(NCCSC[C@H]1O[C@@H](n2cnc3c(N)ncnc32)[C@H](O)[C@@H]1O)Nc1cccc(I)c1	> 95		> 50%	> 90	> 90
Nc1ncnc2c1ncn2[C@@H]1O[C@H](CSCCNC(=O)NCc2ccc(-c3cn[nH]c3)cc2)[C@@H](O)[C@H]1O	< 30	3	< 50%	27	
N=C(NCCCSC[C@H]1O[C@@H](n2cnc3c(N)ncnc32)[C@H](O)[C@@H]1O)Nc1cccc(-c2ccc(O)cc2)c1	> 95		> 50%	> 90	> 90
Nc1ncnc2c1ncn2[C@@H]1O[C@H](CSCCNC(=O)NCc2ccc(-c3ccccc3O)cc2)[C@@H](O)[C@H]1O	< 30	3	< 50%	27	
N=C(NCCCSC[C@H]1O[C@@H](n2cnc3c(N)ncnc32)[C@H](O)[C@@H]1O)Nc1cccc(-c2ccc3c(c2)OCCO3)c1	> 95		> 50%	> 90	> 90
Nc1ncnc2c1ncn2[C@@H]1O[C@H](CSCCNC(=O)NC2CCCCC2)[C@@H](O)[C@H]1O	< 30	3	< 50%	27	
N=C(NCCCSC[C@H]1O[C@@H](n2cnc3c(N)ncnc32)[C@H](O)[C@@H]1O)Nc1ccccc1	> 95		> 50%	> 90	> 90
Nc1ncnc2c1ncn2[C@@H]1O[C@H](CSCCNC(=O)NCc2ccc3cnccc3c2)[C@@H](O)[C@H]1O	< 30	3	< 50%	27	
COc1cc2nc(-c3ccccc3O)nc(NCCSC[C@H]3O[C@@H](n4cnc5c(N)ncnc54)[C@H](O)[C@@H]3O)c2cc1OC	< 50	< 30	inactive		
COc1cc2nc(-c3cccc([N+](=O)[O-])c3)nc(NCCSC[C@H]3O[C@@H](n4cnc5c(N)ncnc54)[C@H](O)[C@@H]3O)c2cc1OC	< 50	< 30	inactive		

Structure (SMILES)	inhibition [1] [%]	inhibition [2] [%]	inhibition [3]	inhibition [4] [%]	inhibition [5] [%]
COc1cc2nc(-c3ccc(F)c(O)c3)nc(NCCSC[C@H]3O[C@@H](n4cnc5c(N)ncnc54)[C@H](O)[C@@H]3O)c2cc1OC	< 50	< 30	inactive		
Nc1ncnc2c1ncn2[C@@H]1O[C@H](CSCCNC(=O)Nc2ccc(F)cc2)[C@@H](O)[C@H]1O	< 30	> 50	< 50%	27	
Nc1ncnc2c1ncn2[C@@H]1O[C@H](CSCCNC(=O)NCc2ccc(F)cc2)[C@@H](O)[C@H]1O	< 30	> 50	< 50%	> 90	
COc1cc2nc(-c3cccc(O)c3)nc(NCCSC[C@H]3O[C@@H](n4cnc5c(N)ncnc54)[C@H](O)[C@@H]3O)c2cc1OC	< 50	< 30	inactive		
N=C(NCCCSC[C@H]1O[C@@H](n2cnc3c(N)ncnc32)[C@H](O)[C@@H]1O)Nc1cccc(-c2ccc(F)cc2F)c1	> 95		> 50%	> 90	> 90
N=C(NCCSC[C@H]1O[C@@H](n2cnc3c(N)ncnc32)[C@H](O)[C@@H]1O)NCc1ccccc1	> 95		> 50%	> 90	> 90
Nc1ncnc2c1ncn2[C@@H]1O[C@H](CSCCNC(=O)NCc2ccccc2Br)[C@@H](O)[C@H]1O	< 30	3	< 50%	> 90	
Nc1ncnc2c1ncn2[C@@H]1O[C@H](CSCCNC(=O)NCc2ccc(-c3cc[nH]n3)cc2)[C@@H](O)[C@H]1O	< 30	3	< 50%	27	
Nc1ncnc2c1ncn2[C@@H]1O[C@H](CSCCNC(=O)NCCCc2ccccc2)[C@@H](O)[C@H]1O	< 30	3	< 50%	27	
Nc1ncnc2c1ncn2[C@@H]1O[C@H](CSCCNC(=O)Nc2ccccc2Br)[C@@H](O)[C@H]1O	< 30	> 50	< 50%	27	
COc1cc2nc(-c3cccc(F)c3)nc(NCCSC[C@H]3O[C@@H](n4cnc5c(N)ncnc54)[C@H](O)[C@@H]3O)c2cc1OC	< 50	< 30	inactive		
COc1cc2nc(-c3ccoc3)nc(NCCSC[C@H]3O[C@@H](n4cnc5c(N)ncnc54)[C@H](O)[C@@H]3O)c2cc1OC	< 50	< 30	inactive		
Nc1ncnc2c1ncn2[C@@H]1O[C@H](CSCCNC(=O)Nc2ccccc2)[C@@H](O)[C@H]1O	< 30	> 50	< 50%	27	
Nc1ncnc2c1ncn2[C@@H]1O[C@H](CSCCNC(=O)Nc2ccc(Cl)cc2)[C@@H](O)[C@H]1O	< 30	3	< 50%	27	
Nc1ncnc2c1ncn2[C@@H]1O[C@H](CSCCCNC(=O)NCc2ccccc2)[C@@H](O)[C@H]1O	< 30	3	< 50%	27	
Nc1ncnc2c1ncn2[C@@H]1O[C@H](CSCCCNC(=O)NCCCc2ccccc2)[C@@H](O)[C@H]1O	< 30	3	< 50%	27	
Nc1ncnc2c1ncn2[C@@H]1O[C@H](CSCCCNC(=O)NCc2ccc(F)cc2)[C@@H](O)[C@H]1O	< 30	3	< 50%	27	
COc1cc2nc(-c3ccc(N)cc3)nc(NCCSC[C@H]3O[C@@H](n4cnc5c(N)ncnc54)[C@H](O)[C@@H]3O)c2cc1OC	< 50	< 30	inactive		
COc1cc2nc(-c3ccc(C(F)(F)F)cc3)nc(NCCSC[C@H]3O[C@@H](n4cnc5c(N)ncnc54)[C@H](O)[C@@H]3O)c2cc1OC	< 50	< 30	inactive		
CCNC(=O)NCCSC[C@H]1O[C@@H](n2cnc3c(N)ncnc32)[C@H](O)[C@@H]1O	< 30	3	< 50%	27	
